Results on seven compounds are retold here after patent publication US10342767B2, “Therapy for kinase-dependent malignancies” (CHILDREN'S HOSPITAL MEDICAL CENTER, priority 2011, dated 2019).

Data set [1] has as its system phospho-p38. Briefly: Pharmacodynamic phospho-p38 analysis in leukemic mice. The data set is classed as in vivo, mouse. The following applies: peripheral blood mononuclear cells, 6 h after BCI 10 mg/kg i.p. Here is the method: Pharmacodynamic analysis of Dusp1 and c-Fos targets. Phospho-p38 analysis. Three leukemic mice (8-12 weeks old), which had received transplants of BCR-ABL-expressing Kit+ cells, were injected with BCI (10 mg/kg) by intraperitoneal injection 4 weeks after transplantation. Phospho-p38 levels were quantified in peripheral blood MNCs using the Phosflow kit (BD Biosciences), according to the supplier's instructions. In brief, blood was collected from each mouse before and 6 hours after drug injection. Mononuclear cells were isolated by RBC depletion: RBCs were lysed twice using 4 ml Pharmlyse solution (BD Biosciences) per 100 μl of peripheral blood by mixing and incubated on ice for 5 min. After the second lysis step, cell pellets were washed with 1 ml 2% BSA in PBS followed by fixation using 100 μl of fixation and permeabilization solutions (BD Biosciences) for 20 min at 4° C. in the dark. The pellets were washed with 1 ml of 1×BD Perm/wash buffer. After fixation, the cells were blocked using 300 μl 2% BSA in Perm/wash buffer (BD Biosciences) at room temperature for 20 min. […] Data were acquired by FACS on Fortessa instrument, and the data were analyzed by FlowJo software. The mean fluorescence intensity (MFI) of the IgG control was deducted from the MFI of the experimental samples. […] Quantitative gene-expression analysis of target genes. […]

Data set [2] has as its system Dusp1. Briefly: In vitro BCI-resistance screening of randomly mutagenized Dusp1 in BaF3-BA cells. The class given is cell-based, mouse. The protocol:
To determine the relevant target of BCI more conclusively, we performed in vitro drug-resistant screening to select for BCI-resistant mutations in Dusp1. BaF3-BA cells transfected with an expression library of randomly mutagenized Dusp1 construct were used for the selection of mutations conferring resistance to different concentrations of BCI (FIG. 19D). […] 27 clones that emerged in 1.5 μM of BCI were randomly selected and further analyzed. Dose-response analysis confirmed their resistance to BCI (FIG. 19F). Sequencing of the Dusp1 gene in these clones identified four different substitution mutations (E19R, C24G, V83G, and E112R) and two deletion mutations at the N terminus (Δ2-8 and Δ2-28; FIG. 19G). Because most resistant clones carried two or more mutations, we generated clones with individual mutations for further analysis. […] Furthermore, an unbiased docking of BCI using a structural model of the Dusp1 rhodanese domain identified the putative site to which BCI binds, with a predicted free energy of ΔG=−7.63 (FIG. 18E).
Random mutagenesis and screening of Dusp1 mutants. A Gateway entry clone containing mouse Dusp1 complementary DNA was purchased from the Harvard PalsmiD repository (cat. #MmCD00312825). The Dusp1 coding region was transferred into the retroviral gateway vector pMSCV-Ires-GFP.GW59 by recombination cloning. […] Mutants isolated in the screen were engineered into the pMSCV-Dusp1-Ires-GFP vector, using the QuikChange II XL Site-Directed Mutagenesis Kit (Agilent). The sequence of each point mutation was confirmed by sequence analysis.

Data set [3] deals with phospho-p38, p-JNK. Nature of the data set: Immunoblot of MAPK signaling in BaF3 and BaF3-BA cells. The class given is cell-based, mouse. The following applies: with or without IL-3. The protocol: Western blotting. 4-6 million cells were collected, and whole-cell extracts were prepared using lysis buffer supplemented with a protease-inhibitor cocktail (Roche) and phosphatase-inhibitor cocktail 2 (Sigma-Aldrich), as described previously (Azam, M., Seeliger, M. A., Gray, N. S., Kuriyan, J. & Daley, G. Q. Activation of tyrosine kinases by mutation of the gatekeeper threonine. Nat. Struct. Mol. Biol. 15, 1109-1118 (2008)). The proteins were resolved on 10% SDS-PAGE gels and transferred to nitrocellulose membranes (Bio-Rad). Membranes were blocked in TBST with 5% nonfat milk and probed with appropriate antibodies as indicated. Densitometry was carried out using ImageJ software.
Background: Immunoblotting shows a protein as a band on a membrane.

For data set [4], the system named is HCC827 cells. Nature of the data set: HCC827 cell survival (WST assay). To be noted: DFC, BCI and erlotinib alone and in combination.
Data set [5] deals with BaF3-BA cells. Nature of the data set: Cell proliferation/survival assay of BaF3 cells expressing BCR-ABL (WST-1). The data set is classed as cell-based, mouse. The following applies: inhibitor 500 nM. Background: Formazan colour is commonly taken as a measure of viable cells.
Data set [6] concerns SKMEL28. Nature of the data set: SKMEL28 dose response / cell survival (WST assay). The class given is cell-based. The following applies: HGF. Here is the method: (§1) Cell-proliferation assay. […] The cells were incubated for 60 h.
(§2) Time at 0 hours represents the level of expression without TKI+/−GF. Note that the growth factors induce higher expression of c-FOS in all cell lines and DUSP1 in RT4 at 0 hours, while the addition of both TKI and growth factors induced both c-FOS and DUSP1. […] Note inhibition of c-FOS and DUSP1 is sufficient to kill AU565 cells, while their inhibition in RT4 and SKMEL28 cells restored the TKI sensitivity in the presence of growth factors.

For data set [7], the system named is EGFR. The following applies: NSCLC patients with activating EGFR mutations; cited from earlier work.
The subject of data set [8] is RT4. Briefly: RT4 dose response / cell survival (WST assay). The data set is classed as cell-based. To be noted: EGF. Here is the method: as §1, §2
In data set [9] the test system is AU565. Briefly: AU565 dose response / cell survival (WST assay). To be noted: neuregulin 1-NRG1. The data set is classed as cell-based. Here is the method:
as §1, §2

Data set [10] has as its system CML patient cells (CP1, CP4). Nature of the data set: LTC-IC assay, CML patient samples. The class given is cell-based, human. The protocol: LTC-IC assay. The LTC-IC assay was performed according to the instruction manual of StemCell Technologies. […] After 24 h, the cells were washed in human long-term culture medium (HLTM; MyeloCult H5100 media containing 1 μM hydrocortisone) and were plated on irradiated MS-5 stromal cells. Cultures were maintained for 5 weeks with weekly half-medium changes. Cells were then harvested, counted, and transferred to methylcellulose-containing media (MethoCult Express, StemCell Technologies) for colony-forming assays. At the end of week 5, adherent and nonadherent cells were isolated and plated in methylcellulose (METHOCULT H4434 classic, stem cell technology) for CFU analysis in triplicate. Plates were incubated at 37° C., and colonies were scored 2 weeks after plating.

In data set [11] the test system is Fos, Dusp1, and Zfp36 expression. Briefly: Real-time qPCR of Fos, Dusp1 and Zfp36 in BaF3-BA cells. The class given is cell-based, mouse. For orientation: Real-time PCR tracks product formation cycle by cycle.
Experimental: Real-time qPCR analysis. Candidate genes picked by microarray analysis were validated by real time qPCR. Total RNA was isolated as described above. The RNA was first subjected to DNase treatment using DNA-free DNase kit (Ambion, Life technologies). 2 μg of total RNA was converted to cDNA with Superscript III first-strand synthesis kit (Life technologies). qPCR reactions were performed with the human gene-specific primers using the SYBR green method and using a Mastercycler RealPlex2 instrument (Eppendorf). All PCR reactions were performed in triplicate and the real-time data was normalized to β-actin expression.
The subject of data set [12] is K562. Nature of the data set: Survival of K562 cells treated with imatinib with or without erythropoietin. The class given is cell-based, human. The following applies: erythropoietin treatment.
Data set [13] concerns CML CD34+ cells from patient CP4. Briefly: Mouse model of CML with patient-derived CD34+ cells. The class given is in vivo, human. The following applies: treatment for 3 weeks; imatinib 75 mg/kg, DFC and BCI 10 mg/kg twice daily i.p. The protocol: To extend these findings to human cells, we tested the effect of c-FOS and DUSP1 inhibition on the survival of primary CML patient samples (Table 2).
Mouse models of CML with patient-derived cells. 3 million CD34+ cells from CML patient CP4 (described in Table 1) were transplanted into sublethally irradiated 8-week-old NSG mice. 2 weeks after transplantation, leukemic engraftment in bone marrow was determined by FACS using mouse and human specific antibodies against CD45. […] Drugs were diluted in PBS (vehicle) and administered by intraperitoneal injection twice daily. […]

For data set [14] the following is noted: mouse, in vivo; cited from earlier work.

“Also recorded” adds a separate entry of the source. Counter-ions that a name gives are not always drawn.

For the compound `O=C1/C(=C/c2ccccc2)C(NC2CCCCC2)c2ccccc21` (stereo not shown) [BCI, (E)-2-benzylidene-3-(cyclohexylamino)-2,3-dihydro-1H-inden-1-one], the “increase in phospho-p38 levels” value in data set [1] was 4-8 fold. In addition, the “frequency of resistant clones” value is listed as 1,200 clones per million cells in data set [2] (1 μM BCI), 27 clones per million cells in data set [2] (1.5 μM BCI) and “did not yield any resistant clones” in [2] (2 μM of BCI). In addition, the phospho-JNK result in data set [3] (BaF3-BA cells) is on record as “decreased”. The phospho-p38 levels result in [3] (BaF3 and BaF3-BA cells) is given as “enhanced; also recorded: increased”. Besides, in [4], the cell survival result is recorded as “sensitized the cells for erlotinib”.

As to `Oc1ccc(-c2nc(-c3ccncc3)c(-c3ccc(F)cc3)[nH]2)cc1` [SB202190], the “imatinib resistance conferred by inhibitor” value in data set [5] is listed as “conferred imatinib resistance”.

As to `CCCS(=O)(=O)Nc1ccc(F)c(C(=O)c2c[nH]c3ncc(Cl)cc23)c1F` [PLX4720], in data set [6], the “response to PLX4720 in the presence of growth factor” value is recorded as “resistance”.

For `C#Cc1cccc(Nc2ncnc3cc(OCCOC)c(OCCOC)cc23)c1` [erlotinib], the response rate entry in [7] is reported as “approximately 70%”.

With `CS(=O)(=O)CCNCc1ccc(-c2ccc3ncnc(Nc4ccc(OCc5cccc(F)c5)c(Cl)c4)c3c2)o1` [lapatinib], the “response to lapatinib in the presence of growth factor” value in data set [8] and in data set [9] was “resistance” throughout.

`Cc1ccc(NC(=O)c2ccc(CN3CCN(C)CC3)cc2)cc1Nc1nccc(-c2cccnc2)n1` [Imatinib, Imatinib mesylate]: the “LTC-IC activity as compared to vehicle” value in data set [10] (CP1 cells) was “increased”; in data set [10] (sample CP4) it was “significant decrease”. Moreover, the “expression of Fos, Dusp1 and Zfp36” value in [11] (imatinib alone) is reported as “downregulated”. The “higher expression of Fos, Dusp1 and Zfp36 as compared to BaF3-BA plus imatinib” value in data set [11] (imatinib plus growth factor (IL-3)) was 4-5 fold. In addition, the “response to imatinib with erythropoietin” value in data set [12] was “conferred imatinib resistance”. The “effect on human leukemic cells in bone marrow” value in data set [13] is listed as “ineffective”.

Turning to `COc1cc(/C=C/C(=O)C(=Cc2ccc(F)c(F)c2)C(=O)/C=C/c2ccc(O)c(OC)c2)ccc1O` [DFC, difluorinated curcumin], the “pharmacokinetics relative to curcumin” value in data set [14] is recorded as “superior pharmacokinetics”.
